From patent publication US7378419B2, “9-amino-podophyllotoxin derivatives, method for the production thereof and pharmaceutical compositions containing said derivatives” (Les Laboratoires Servier, priority 2003, dated 2008) come the findings set out here.

For one data set, the system named is A375. Briefly: In vitro cytotoxicity, microculture tetrazolium assay, A375. Type of data set: cell-based. Particulars: Homo sapiens, A-375; A375 melanoma, 48 hours exposure. As for the experimental part: (§1) Six cell lines were used: • 1 murine leukemia: L1210 • 1 human epidermal carcinoma: KB-3-1 • 1 human pulmonary carcinoma, not small cell: A549 • 1 melanoma: A375 • 1 neuroblastoma: SK-N-MC • 1 fibrosarcoma: HT1080
(§2) The cells are cultivated in complete RPMI 1640 culture medium containing 10% of fetal calf serum, 2 mM of glutamine, 50 U/ml of penicillin, 50 μg/ml of streptomycin and 10 mM of Hepes, pH: 7.4. The cells are distributed in microplates and exposed to cytotoxic compounds for 4 doubling times, which is 48 hours. The number of viable cells is then quantified by a […] assay, the microculture tetrazolium assay (J. Carmichael et al., Cancer Res.; 47, 936-942, (1987)). The results are expressed as IC50, the cytotoxic concentration that inhibits the proliferation of the treated cells by 50%.

The next data set concerns KB-3-1. The experiment in a line: In vitro cytotoxicity, microculture tetrazolium assay, KB-3-1. Particulars: KB-3-1 human epidermal carcinoma, 48 hours exposure. The data set is classed as cell-based. As for the experimental part: as §1, §2
In a further data set the test system is L1210 cells. The experiment in a line: Action on the cell cycle (G2+M accumulation). The data set is classed as cell-based, murine. The note with it: L1210, after 21 hours, concentration of 250 nM (control: 20%). The procedure: The L1210 cells are incubated for 21 hours at 37° C. in the presence of various concentrations of the products tested. The cells then are fixed with 70% ethanol (v/v), washed twice in PBS and incubated for 30 minutes at 20° C. in PBS containing 100 μg/ml of RNase and 50 μg/ml of propidium iodide. The results are expressed as a percentage of cells accumulated in phase G2+M after 21 hours compared to the control (control: 20%). The compounds of examples 2 and 4 induce an accumulation of 70% and 81%, respectively, of the cells in phase G2+M after 21 hours at a concentration of 250 nM.

The subject of the next data set is HT1080. The experiment in a line: In vitro cytotoxicity, microculture tetrazolium assay, HT1080. The data set is classed as cell-based. The note with it: Homo sapiens, HT-1080; HT1080 fibrosarcoma, 48 hours exposure. As for the experimental part:
as §1, §2

The test system of a further data set is P388 leukemia. Briefly: In vivo anti-tumor activity on P388 leukemia. The note with it: P388, 50 mg/kg, intravenously on day 1, female BDF1 mice. The procedure: The P388 line (murine leukemia) was provided by the National Cancer Institute (Frederick, Md., USA). The tumor cells (10^6 cells) were inoculated on day 0 in the peritoneal cavity of female BDF1 mice (Iffa-Credo, France) weighing from 18 to 20 g (groups of 6 animals). The products were administered intravenously on day 1.
(§3) The anti-tumor activity is expressed in T/C %: T/C%=(median survival time of the treated animals)/(median survival time of the control animals)×100

In data set [1] the test system is A549 human pulmonary carcinoma. The experiment in a line: In vivo anti-tumor activity on A549 human pulmonary carcinoma. Particulars: A549, 3.12 mg/kg.
Source text: *Anti-Tumor Activity of the Compounds on P388 Leukemia and on A549 Human Pulmonary Carcinoma:
as §3

In another data set the test system is SK-N-MC. The experiment in a line: In vitro cytotoxicity, microculture tetrazolium assay, SK-N-MC. The data set is classed as cell-based. Particulars: Homo sapiens; SK-N-MC neuroblastoma, 48 hours exposure. The procedure:
as §1, §2

Another data set relates to L1210. The experiment in a line: In vitro cytotoxicity, microculture tetrazolium assay, L1210. The data set is classed as cell-based. The note with it: L1210 murine leukemia, 48 hours exposure. As for the experimental part: as §1, §2
In a further data set the test system is A549. The experiment in a line: In vitro cytotoxicity, microculture tetrazolium assay, A549. Particulars: A549 human pulmonary carcinoma, not small cell, 48 hours exposure. The data set is classed as cell-based. As for the experimental part:
as §1, §2

What is called melting point is the temperature, or range, at which the solid turns liquid. For `COc1cc([C@@H]2c3cc4c(cc3[C@@H](NC3=CC(=O)N(Cc5ccc(NC(C)=O)cc5)C3=O)[C@H]3COC(=O)[C@H]23)OCO4)cc(OC)c1O`, the melting point is 200 to 204 °C (dec.).

For `COc1cc([C@@H]2c3cc4c(cc3[C@@H](NC3=CC(=O)N(CCCCCC(=O)O)C3=O)[C@H]3COC(=O)[C@H]23)OCO4)cc(OC)c1O`, the melting point was in the range of 150 to 152 °C.

In turn, `COc1cc([C@@H]2c3cc4c(cc3[C@@H](NC3=C(C)C(=O)N(C)C3=O)[C@H]3COC(=O)[C@H]23)OCO4)cc(OC)c1O` came in with a melting point of 172 to 176 °C.

The compound `C=CCN1C(=O)C=C(N[C@@H]2c3cc4c(cc3[C@@H](c3cc(OC)c(O)c(OC)c3)[C@H]3C(=O)OC[C@@H]32)OCO4)C1=O` gave a melting point of 180 to 183 °C.

For `COc1cc([C@@H]2c3cc4c(cc3[C@@H](NC3=CC(=O)N(Cc5ccc(F)cc5)C3=O)[C@H]3COC(=O)[C@H]23)OCO4)cc(OC)c1O[Si](C)(C)C(C)(C)C`, the melting point lay within 182 to 184 °C.

For the compound `COc1cc([C@@H]2c3cc4c(cc3[C@@H](NC3=CC(=O)N(Cc5ccc(F)cc5)C3=O)[C@H]3COC(=O)[C@H]23)OCO4)cc(OC)c1O`, the melting point lay within 214 to 216 °C.

Compound `COc1cc([C@@H]2c3cc4c(cc3[C@@H](NC3=CC(=O)N(Cc5ccc(C(F)(F)F)cc5)C3=O)[C@H]3COC(=O)[C@H]23)OCO4)cc(OC)c1O` registered a melting point of 184 to 186 °C.

`COc1cc([C@@H]2c3cc4c(cc3[C@@H](NC3=CC(=O)N(Cc5ccc(NC(C)=O)cc5)C3=O)[C@H]3COC(=O)[C@H]23)OCO4)cc(OC)c1O[Si](C)(C)C(C)(C)C` came in with a melting point of 177 to 179 °C.

Broadly, the IC50 is the concentration needed to halve the response being measured. Lower therefore signals greater potency. As a reminder, the T/C is the ratio of treated to control. On to `COc1cc([C@@H]2c3cc4c(cc3[C@@H](NC3=CC(=O)N(C)C3=O)[C@H]3COC(=O)[C@H]23)OCO4)cc(OC)c1O` [Example 2, 3-{[(5S,5aS,8aR,9R)-9-(4-Hydroxy-3,5-dimethoxyphenyl)-8-oxo-5,5a,6,8,8a,9-hexahydrofuro[3′,4′:6,7]naphtho[2,3-d][1,3]dioxol-5-yl]amino}-1-methyl-1H-pyrrole-2,5-dione], for which the IC50 was 0.0442 µM with A375; 0.0666 µM with KB-3-1; 0.0758 µM in the data set with HT1080; 0.106 µM in the data set on SK-N-MC; 0.054 µM with L1210 (Mus musculus); 0.11 µM with A549. Also, the “percentage of cells accumulated in phase G2+M” value in the data set on L1210 cells was 70%. Also, the “T/C (median survival time treated/control x 100)” value in the data set on P388 leukemia is reported as above 575%. The “animals surviving as of day 60” value in the data set with P388 leukemia came out at 50%. Further, the T/C in data set [1] was 225%.

With `COc1cc([C@@H]2c3cc4c(cc3[C@@H](NC3=CC(=O)N(Cc5ccccc5)C3=O)[C@H]3COC(=O)[C@H]23)OCO4)cc(OC)c1O` [Example 4, 3-{[(5S,5aS,8aR,9R)-9-(4-Hydroxo-3,5-dimethoxyphenyl)-8-oxo-5,5a,6,8,8a,9-hexahydrofuro[3′,4′:6,7]naphtho[2,3-d][1,3]dioxol-5-yl]amino}-1-benzyl-1H-pyrrole-2,5-dione], the “percentage of cells accumulated in phase G2+M” value in the data set on L1210 cells is recorded as 81%. For the same compound, in the data set with L1210, the IC50 was 0.029 µM.
